Measurements from patent US8039455B2, “Macrocyclic compounds useful as BACE inhibitors” (Novartis AG, priority 2005, dated 2011).

Target: human BACE (Homo sapiens, UniProt P56817)
Assay: Test 1: Inhibition of Human BACE
Type: biochemical
Description: Test 1: Inhibition of Human BACE

Chain of human BACE (P56817 46-457 limits assumed): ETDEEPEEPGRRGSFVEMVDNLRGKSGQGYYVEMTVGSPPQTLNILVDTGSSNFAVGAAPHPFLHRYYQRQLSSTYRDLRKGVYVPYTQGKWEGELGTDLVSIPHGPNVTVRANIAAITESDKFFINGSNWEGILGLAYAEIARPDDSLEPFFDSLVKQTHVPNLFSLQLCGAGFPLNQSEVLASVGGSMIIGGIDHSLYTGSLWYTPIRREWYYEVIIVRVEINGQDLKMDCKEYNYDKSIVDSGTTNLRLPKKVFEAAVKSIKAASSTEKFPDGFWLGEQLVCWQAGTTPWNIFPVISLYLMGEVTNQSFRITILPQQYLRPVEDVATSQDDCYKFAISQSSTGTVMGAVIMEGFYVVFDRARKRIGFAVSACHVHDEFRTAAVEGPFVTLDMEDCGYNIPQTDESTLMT

IC50: 250 nM
Compound: CC(=O)c1cc2cc(c1)C(=O)N[C@H]([C@H](O)CNC1(c3cccc(C(C)C)c3)CC1)Cc1cccc(c1)CCCCO2 [Example 5, (S)-18-Acetyl-4-{(R)-1-hydroxy-2-[1-(3-isopropyl-phenyl)-cyclopropylamino]-ethyl}-15-oxa-3-aza-tricyclo[14.3.1.1*6,10*]henicosa-1(20),6,8,10(21),16,18-hexaen-2-one]
